The term IC50 denotes the midpoint of a concentration-inhibition curve. A high value points to weaker potency in that assay.

The target in this experiment is T1, factor IXa (Homo sapiens, UniProt P00740).
T1 construct: purchased Calbiochem (Merck KGaA) 233290
T1 sequence (P00740 227-461 limits assumed): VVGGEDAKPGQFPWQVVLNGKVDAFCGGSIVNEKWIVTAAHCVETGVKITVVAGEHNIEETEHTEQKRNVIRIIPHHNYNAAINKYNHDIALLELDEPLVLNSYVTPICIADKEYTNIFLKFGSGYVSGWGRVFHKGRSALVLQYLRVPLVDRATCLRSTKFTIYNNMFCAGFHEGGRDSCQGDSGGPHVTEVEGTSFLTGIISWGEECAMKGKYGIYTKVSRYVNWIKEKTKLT
T1 sequence (P00740 47-191 partner limits assumed): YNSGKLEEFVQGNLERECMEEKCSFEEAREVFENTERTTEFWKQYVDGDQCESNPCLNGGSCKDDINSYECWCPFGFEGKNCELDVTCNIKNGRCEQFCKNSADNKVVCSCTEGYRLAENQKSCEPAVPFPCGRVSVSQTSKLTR
In words: Factor IXa enzyme assay (chromogenic substrate PEFA 3107). The class given is biochemical. The conditions noted are these: factor IXa 277 nM final, pH 7.4, 15 min preincubation at room temperature, read at 405 nm, duplicate determination. The procedure:
The prepared substances from the examples were tested for inhibition of the enzymatic activity of FIXa using the substrate PEFA 3107 (Pentapharm/Loxo; via S. Black GmbH, Baumstrasse 41, 47198 Duisburg, Germany; Pr. No. 095-20) and factor IXa (Calbiochem, Merck KGaA markets Calbiochem in Germany, Life Science & Analytics, 64293 Darmstadt; Pr. No. 233290). In this method, 28 μl of test buffer (50 mM α,α,α-tris(hydroxymethyl)methylamine (TRIS), 100 mM NaCl, 5 mM CaCl2, 0.1% bovine serum albumin, pH 7.4) and 10 μl of factor IXa (277 nM final concentration in the test batch) were added to 2 μl of 10 mM dimethyl sulfoxide solution of the respective test substance, and the mixture was incubated for 15 minutes at room temperature in a 96 half-well microtiter plate. The enzyme reaction was started by addition of 10 μl of substrate (1 mM stock solution in water). The time course of the reaction was monitored at 405 nm in a microtiter plate reader (SpectraMax plus 384; Molecular Devices) for 15 minutes.
The IC50 was calculated from the averaged values (duplicate determination) of a dilution series of the test substance with the aid of the software Grafit 4 (Erithacus Software, UK). The inhibition constants (Ki) were calculated according to the Cheng Prusoff equation Ki=IC50/(1+(S/Km), where S=concentration of the test substrate in the test and Km=Michaelis-Menten constant.
The compound `CC(C)c1ccc(C(=O)NC(c2ccccc2)C(O)C(=O)Nc2ccc3nc(N)[nH]c3c2)cc1` (stereo not drawn) [Example 17, N-[2-(2-Amino-3H-benzimidazol-5-ylcarbamoyl)-2-hydroxy-1-phenylethyl]-4-isopropylbenzamide] showed an IC50 of 280 nM.
Next, `CCc1ccc(C(=O)NC(c2ccccc2)C(O)C(=O)Nc2ccc3nc(N)[nH]c3c2)s1` (stereo not drawn) [Example 68, 5-Ethylthiophene-2-carboxylic acid [2-(2-amino-3H-benzimidazol-5-ylcarbamoyl)-2-hydroxy-1-phenylethyl]amide]: 730 nM; `CCc1ccc(C(=O)NC(c2ccccc2)C(O)C(=O)Nc2ccc3c(N)nccc3c2)cc1` (stereo not drawn) [Example 87, N-[2-(1-Aminoisoquinolin-6-ylcarbamoyl)-2-hydroxy-1-phenylethyl]-4-ethylbenzamide]: 140 nM; `Nc1nc2ccc(NC(=O)C(O)C(NC(=O)c3ccc(-c4cccs4)s3)c3ccccc3)cc2[nH]1` (stereo not drawn) [Example 81, [2,2′]Bithiophenyl-5-carboxylic acid [2-(2-amino-3H-benzimidazol-5-ylcarbamoyl)-2-hydroxy-1-phenylethyl]amide]: 570 nM.
The value for `Nc1nc2ccc(NC(=O)C(O)C(NC(=O)c3ccc(N4CCOCC4)cc3)c3ccccc3)cc2[nH]1` (stereo not drawn) [Example 53, N-[2-(2-Amino-3H-benzimidazol-5-ylcarbamoyl)-2-hydroxy-1-phenylethyl]-4-morpholin-4-yl-benzamide] was 1340 nM; that for `COc1cc(OC)cc(C(NC(=O)c2ccc(C(C)C)cc2)C(O)C(=O)Nc2ccc3nc(N)[nH]c3c2)c1` (stereo not drawn) [Example 134, N-[2-(2-Amino-3H-benzimidazol-5-ylcarbamoyl)-1-(3,5-dimethoxyphenyl)-2-hydroxyethyl]-4-iso-propylbenzamide] was 170 nM.

These data come from US8097758B2, “Isoserine derivatives for use as coagulation factor IXa inhibitors” (Sanofi-Aventis, priority 2006, dated 2012).
